In US20250382439A1, “BLUE LIGHT BLOCKING COMPOUND, BLUE LIGHT BLOCKING COMPOSITION, USE OF BLUE LIGHT BLOCKING COMPOUND, USE OF BLUE LIGHT BLOCKING COMPOSITION AND METHOD FOR PREPARING BLUE LIGHT BLOCKING COMPOUND” (Visco Vision Inc., priority 2024, published 2025):

Legend:
Assay type in all cases: physicochemical
[1] = Miscibility evaluation: blue light blocking compound dissolved in HEMA and in a silicone hydrogel contact lens composition; settings: the higher the value, the greater the miscibility; for miscibility in silicone hydrogel contact lens composition: composition with hydrophilic monomer, first siloxane monomer and second siloxane monomer; for miscibility in HEMA: dissolved in 2-hydroxyethyl methacrylate (HEMA)
Method: The blue light blocking compounds of Examples 1 to 3 and Comparative Example 1 are dissolved in 2-hydroxyethyl methacrylate (represented by HEMA in the table, which is also the hydrophilic monomer used to manufacture the ophthalmic device) and a silicone hydrogel contact lens composition for observing the miscibility, and the results are shown in the following TABLE 1. The higher the value in the TABLE 1, the greater the miscibility. The silicone hydrogel contact lens composition used in the miscibility evaluation includes a polymerizable monomer, and the polymerizable monomer includes a hydrophilic monomer, a first siloxane monomer and a second siloxane monomer.

[2] = as above
[3] = Blue light absorbance evaluation of ophthalmic devices (absorption spectrum, UV-VIS spectrophotometer SHIMADZU UV-2600); settings: 380 nm to 460 nm
Text: The above components can be mixed in a specific ratio to form the blue light blocking composition for manufacturing an ophthalmic device. In an embodiment, the blue light blocking composition of the present disclosure may be put into a contact lens mold, and components in the blue light blocking composition undergo a curing reaction (thermal curing reaction or photo curing reaction) through heating or irradiating light to form an ophthalmic device. The heating temperature may be between about 30° C. and about 150° C., and the heating time may be between about 1 hour and 12 hours. In an embodiment, the reaction conditions can be heating at 30-70° C. for 0-2 hours, heating at 70-100° C. for 2-4 hours, and heating at 100-150° C. for 4-12 hours. In an embodiment, a hydration process and/or a sterilization process can be performed after the curing reaction. […]
The ophthalmic devices of Examples 4 to 9 and Comparative Examples 2 and 3 are subjected to a blue light absorbance evaluation. The blue light absorbance is measured by absorption spectrum with UV-VIS spectrophotometer (SHIMADZU UV-2600). The blue light absorbance represents the amount of blue light with a wavelength between 380 nm and 460 nm that are absorbed by silicone hydrogel contact lens.

Compound	miscibility in silicone hydrogel contact lens composition [1]	miscibility in HEMA [1]	miscibility with the silicone hydrogel contact lens compositions (observation) ([2]; addition amount 1.0%)	usable addition amount in silicone hydrogel contact lens composition ([2]; concluded from TABLE 2)	blue light absorbance ([3]; ophthalmic device from silicone hydrogel contact lens composition with 1.5% of the compound)	blue light absorbance ([3]; ophthalmic device from silicone hydrogel contact lens composition with 2% of the compound)
C=C(C)C(=O)OCCNC(=O)/C(=C/c1ccc(N(C)C)cc1)C(=O)OC [Example 3]	1.5%	47%	–	–	–	–
C=C(C)C(=O)OCCOC(=O)C(=Cc1ccc(N(C)C)cc1)C(=O)OCCOC(=O)C(=C)C [Example 2]	4.6%	67%	–	–	–	–
C=CS(=O)(=O)c1cc(OC)c(/N=N/C2C(=O)N(c3ccc(S(=O)(=O)[O-])cc3)N=C2C)cc1C.[Na+] (stereo not drawn) [Comparative Example 1, reference compound]	0.1%	5%	precipitation occurs	less than 1.0%	–	–
C=C(C)C(=O)OCCOC(=O)/C(=C/c1ccc(N(C)C)cc1)C(=O)OC [Example 1]	4.0%	25%	–	–	56.1%	65.3%
